Data reported in US20260224588A1, “BENZODIAZEPINONE-DERIVED INHIBITORS OF EGFR AND HER2” (The Research Foundation for the State University of New York, priority 2023, published 2026).

Experiments:
Assay in all cases: KINOMEscan
Type in all cases: binding
Settings in all cases: 1 μM of compound 4; read-out: POC
NEK10 = NEK10 (Homo sapiens, UniProt Q6ZWH5)
[1] = target: T1, ABL1(F317L)-phosphorylated (Homo sapiens, UniProt P00519, F317L)
T1 construct: purchased Eurofins DiscoverX Corporation

CAMK1G = CAMK1G (Homo sapiens, UniProt Q96NX5)
MKNK1 = MKNK1 (Homo sapiens, UniProt Q9BUB5)
MEK5 = MEK5 (Homo sapiens, UniProt Q13163)
PKN1 = PKN1 (Homo sapiens, UniProt Q16512)
CAMK1D = CAMK1D (Homo sapiens, UniProt Q8IU85)
EPHA3 = target: T2, EPHA3 (Homo sapiens, UniProt P29320)
T2 construct: purchased Eurofins DiscoverX (KINOMEscan service)

CDC2L1 = CDC2L1 (Homo sapiens, UniProt P21127)
Chain of CDC2L1 (P21127 whole entry): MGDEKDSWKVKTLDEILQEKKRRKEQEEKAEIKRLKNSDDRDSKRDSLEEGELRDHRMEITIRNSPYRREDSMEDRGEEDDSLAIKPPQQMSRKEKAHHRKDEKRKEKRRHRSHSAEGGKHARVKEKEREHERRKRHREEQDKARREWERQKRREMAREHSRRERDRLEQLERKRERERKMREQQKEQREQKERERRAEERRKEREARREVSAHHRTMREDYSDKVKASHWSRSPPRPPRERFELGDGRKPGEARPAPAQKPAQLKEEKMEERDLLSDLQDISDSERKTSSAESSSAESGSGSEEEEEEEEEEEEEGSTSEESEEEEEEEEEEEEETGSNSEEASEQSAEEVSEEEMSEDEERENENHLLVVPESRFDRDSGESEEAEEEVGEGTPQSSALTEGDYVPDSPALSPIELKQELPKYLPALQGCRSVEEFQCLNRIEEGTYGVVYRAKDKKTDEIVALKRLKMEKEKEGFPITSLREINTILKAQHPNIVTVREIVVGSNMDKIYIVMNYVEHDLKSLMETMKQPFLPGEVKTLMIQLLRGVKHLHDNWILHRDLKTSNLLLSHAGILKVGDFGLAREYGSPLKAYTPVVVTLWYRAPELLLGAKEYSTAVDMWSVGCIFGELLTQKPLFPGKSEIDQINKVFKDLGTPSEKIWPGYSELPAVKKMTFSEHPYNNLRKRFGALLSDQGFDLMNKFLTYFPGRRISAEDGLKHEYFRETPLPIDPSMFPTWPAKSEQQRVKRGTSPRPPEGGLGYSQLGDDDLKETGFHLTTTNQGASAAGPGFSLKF

TYRO3 = target: T3, TYRO3 (Homo sapiens, UniProt Q06418)
T3 construct: purchased Eurofins DiscoverX

PIK3C2G = PIK3C2G (Homo sapiens, UniProt O75747)
STK33 = target: T4, STK33 (Homo sapiens, UniProt Q9BYT3)
T4 construct: purchased Eurofins DiscoverX (KINOMEscan service)

DMPK2 = DMPK2 (Homo sapiens, UniProt Q6DT37)
TBK1 = target: T5, TBK1 (Homo sapiens, UniProt Q9UHD2)
T5 construct: purchased Eurofins DiscoverX Corporation

SLK = target: T6, SLK (Homo sapiens, UniProt Q9H2G2)
T6 construct: purchased Eurofins DiscoverX (KINOMEscan service)
T6 sequence (Q9H2G2 whole entry): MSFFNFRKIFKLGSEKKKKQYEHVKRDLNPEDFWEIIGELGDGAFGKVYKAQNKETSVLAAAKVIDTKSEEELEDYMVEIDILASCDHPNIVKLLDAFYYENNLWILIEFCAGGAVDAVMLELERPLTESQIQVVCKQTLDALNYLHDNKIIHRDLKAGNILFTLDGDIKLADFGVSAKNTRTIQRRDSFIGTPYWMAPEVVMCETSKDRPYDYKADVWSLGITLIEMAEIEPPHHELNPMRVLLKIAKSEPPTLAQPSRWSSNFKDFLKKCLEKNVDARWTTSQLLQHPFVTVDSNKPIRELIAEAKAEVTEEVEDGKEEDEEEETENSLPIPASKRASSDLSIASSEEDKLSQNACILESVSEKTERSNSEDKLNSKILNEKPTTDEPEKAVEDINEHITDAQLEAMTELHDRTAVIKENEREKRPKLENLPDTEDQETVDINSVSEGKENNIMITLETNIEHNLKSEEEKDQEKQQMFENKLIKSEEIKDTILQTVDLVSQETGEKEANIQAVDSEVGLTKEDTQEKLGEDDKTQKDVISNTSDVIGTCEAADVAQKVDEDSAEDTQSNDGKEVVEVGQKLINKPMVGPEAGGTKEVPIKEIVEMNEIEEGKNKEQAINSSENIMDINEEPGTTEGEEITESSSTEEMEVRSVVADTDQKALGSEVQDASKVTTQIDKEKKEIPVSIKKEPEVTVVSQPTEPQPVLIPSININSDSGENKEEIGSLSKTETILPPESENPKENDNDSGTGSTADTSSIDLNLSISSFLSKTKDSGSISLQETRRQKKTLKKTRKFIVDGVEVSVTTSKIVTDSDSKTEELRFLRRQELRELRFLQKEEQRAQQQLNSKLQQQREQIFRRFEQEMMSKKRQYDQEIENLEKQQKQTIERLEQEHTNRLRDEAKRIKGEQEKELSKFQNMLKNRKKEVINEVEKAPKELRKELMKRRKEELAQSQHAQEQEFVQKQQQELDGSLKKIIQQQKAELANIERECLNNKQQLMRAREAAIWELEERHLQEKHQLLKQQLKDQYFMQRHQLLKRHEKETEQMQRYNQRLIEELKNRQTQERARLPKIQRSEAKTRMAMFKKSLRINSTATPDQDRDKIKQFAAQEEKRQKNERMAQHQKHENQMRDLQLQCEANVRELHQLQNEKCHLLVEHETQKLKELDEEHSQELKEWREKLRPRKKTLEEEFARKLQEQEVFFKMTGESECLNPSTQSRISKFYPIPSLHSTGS

PRKCH = PRKCH (Homo sapiens, UniProt P24723)
GSK3A = target: T7, GSK3A (Homo sapiens, UniProt P49840)
T7 construct: purchased Eurofins DiscoverX Corporation

CAMK2B = CAMK2B (Homo sapiens, UniProt Q13554)
Chain of CAMK2B (Q13554 whole entry): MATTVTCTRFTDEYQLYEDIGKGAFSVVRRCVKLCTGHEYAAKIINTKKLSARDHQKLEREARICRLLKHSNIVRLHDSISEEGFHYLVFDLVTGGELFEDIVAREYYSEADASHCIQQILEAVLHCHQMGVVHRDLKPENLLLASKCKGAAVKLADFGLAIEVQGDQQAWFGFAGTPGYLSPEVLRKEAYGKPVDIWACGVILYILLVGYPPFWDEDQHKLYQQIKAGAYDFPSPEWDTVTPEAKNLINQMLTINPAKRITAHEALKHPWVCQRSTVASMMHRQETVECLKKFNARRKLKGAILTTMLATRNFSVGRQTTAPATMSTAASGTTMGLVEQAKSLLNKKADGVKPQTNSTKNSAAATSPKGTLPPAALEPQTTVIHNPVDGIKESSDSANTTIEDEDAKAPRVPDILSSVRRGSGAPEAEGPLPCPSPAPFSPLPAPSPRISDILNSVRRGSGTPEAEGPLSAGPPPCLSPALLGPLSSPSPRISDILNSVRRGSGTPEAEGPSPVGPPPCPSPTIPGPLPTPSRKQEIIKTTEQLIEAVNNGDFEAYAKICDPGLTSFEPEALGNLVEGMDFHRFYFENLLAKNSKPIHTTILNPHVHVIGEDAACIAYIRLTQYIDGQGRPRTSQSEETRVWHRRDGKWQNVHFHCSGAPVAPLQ

S6K1 = target: T8, S6K1 (Homo sapiens, UniProt P23443)
T8 construct: purchased Eurofins DiscoverX (KINOMEscan service)

[2] = target: T9, RPS6KA5(Kin.Dom.2-C-terminal) (Homo sapiens, UniProt O75582)
T9 construct: RPS6KA5(Kin.Dom.2-C-terminal); purchased Eurofins DiscoverX Corporation (KINOMEscan screening service)

[3] = target: T10, EGFR(L747-E749del + A750P) (Homo sapiens, UniProt P00533, A750P/DEL747-749)
T10 construct: purchased Eurofins DiscoverX (KINOMEscan service)

CDK4-cyclinD3 = CDK4-cyclinD3 (Homo sapiens, UniProt P11802)
Chain of CDK4-cyclinD3 (P11802 whole entry): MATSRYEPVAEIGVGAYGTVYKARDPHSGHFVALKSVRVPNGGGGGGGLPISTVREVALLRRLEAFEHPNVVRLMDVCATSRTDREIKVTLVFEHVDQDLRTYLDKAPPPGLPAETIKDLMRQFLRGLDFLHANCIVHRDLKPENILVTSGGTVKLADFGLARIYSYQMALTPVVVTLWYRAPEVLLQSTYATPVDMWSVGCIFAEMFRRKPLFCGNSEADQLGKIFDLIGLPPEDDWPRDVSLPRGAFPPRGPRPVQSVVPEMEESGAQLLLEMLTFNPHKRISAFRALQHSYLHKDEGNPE
Chain of CDK4-cyclinD3 (P30281 whole entry partner): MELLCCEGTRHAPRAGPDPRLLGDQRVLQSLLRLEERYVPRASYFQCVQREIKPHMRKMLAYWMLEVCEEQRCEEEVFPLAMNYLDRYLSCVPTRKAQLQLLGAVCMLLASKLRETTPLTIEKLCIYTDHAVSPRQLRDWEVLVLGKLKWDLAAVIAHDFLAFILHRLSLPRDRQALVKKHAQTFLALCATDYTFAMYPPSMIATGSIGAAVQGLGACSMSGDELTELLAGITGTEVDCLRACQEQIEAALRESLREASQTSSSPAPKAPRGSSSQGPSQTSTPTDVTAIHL

BUB1 = BUB1 (Homo sapiens, UniProt O43683)
PRKCI = PRKCI (Homo sapiens, UniProt P41743)
CDC2L2 = CDC2L2 (Homo sapiens, UniProt Q9UQ88)
DDR2 = DDR2 (Homo sapiens, UniProt Q16832)
ULK3 = target: T11, ULK3 (Homo sapiens, UniProt Q6PHR2)
T11 construct: purchased Eurofins DiscoverX

PAK6 = target: T12, PAK6 (Homo sapiens, UniProt Q9NQU5)
T12 construct: purchased Eurofins DiscoverX Corporation (KINOMEscan)

ACVR1B = target: T13, ACVR1B (Homo sapiens, UniProt P36896)
T13 construct: purchased Eurofins DiscoverX Corporation

PLK2 = PLK2 (Homo sapiens, UniProt Q9NYY3)
BRAF = BRAF (Homo sapiens, UniProt P15056)
LRRK2 = LRRK2 (Homo sapiens, UniProt Q5S007)
[4] = target: T14, ABL1(E255K)-phosphorylated (Homo sapiens, UniProt P00519, E255K)
T14 construct: purchased Eurofins DiscoverX Corporation
T14 sequence (P00519 whole entry E255K): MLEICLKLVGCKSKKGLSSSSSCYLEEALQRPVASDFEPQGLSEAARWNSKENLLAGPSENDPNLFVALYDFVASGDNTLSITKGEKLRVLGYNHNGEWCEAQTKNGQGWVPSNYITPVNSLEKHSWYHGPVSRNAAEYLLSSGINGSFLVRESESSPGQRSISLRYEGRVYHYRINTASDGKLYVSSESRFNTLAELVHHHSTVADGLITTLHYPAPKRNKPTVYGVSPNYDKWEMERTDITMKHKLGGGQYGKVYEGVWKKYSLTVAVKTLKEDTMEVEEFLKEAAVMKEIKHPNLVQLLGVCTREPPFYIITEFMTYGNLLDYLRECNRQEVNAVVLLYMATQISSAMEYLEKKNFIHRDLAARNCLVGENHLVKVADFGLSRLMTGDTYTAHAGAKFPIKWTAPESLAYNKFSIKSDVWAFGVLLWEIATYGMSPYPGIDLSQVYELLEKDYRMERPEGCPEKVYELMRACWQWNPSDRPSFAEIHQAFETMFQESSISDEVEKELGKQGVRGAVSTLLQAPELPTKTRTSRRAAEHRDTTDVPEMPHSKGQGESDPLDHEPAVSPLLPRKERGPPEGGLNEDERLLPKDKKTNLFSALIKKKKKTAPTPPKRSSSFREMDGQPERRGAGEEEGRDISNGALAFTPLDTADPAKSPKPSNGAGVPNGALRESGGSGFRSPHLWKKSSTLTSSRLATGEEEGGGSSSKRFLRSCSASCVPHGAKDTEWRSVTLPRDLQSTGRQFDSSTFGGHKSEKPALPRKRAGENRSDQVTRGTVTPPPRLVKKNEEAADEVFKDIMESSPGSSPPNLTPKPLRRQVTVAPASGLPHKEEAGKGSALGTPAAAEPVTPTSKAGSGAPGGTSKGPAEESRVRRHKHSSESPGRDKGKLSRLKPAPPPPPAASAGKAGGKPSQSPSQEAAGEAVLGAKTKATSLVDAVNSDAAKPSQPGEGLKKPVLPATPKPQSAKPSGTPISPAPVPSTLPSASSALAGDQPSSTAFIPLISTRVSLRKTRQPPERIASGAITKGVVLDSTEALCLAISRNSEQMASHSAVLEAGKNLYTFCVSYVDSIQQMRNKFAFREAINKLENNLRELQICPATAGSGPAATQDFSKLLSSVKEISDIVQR

NEK5 = NEK5 (Homo sapiens, UniProt Q6P3R8)
CAMK1 = CAMK1 (Homo sapiens, UniProt Q14012)
Chain of CAMK1 (Q14012 whole entry): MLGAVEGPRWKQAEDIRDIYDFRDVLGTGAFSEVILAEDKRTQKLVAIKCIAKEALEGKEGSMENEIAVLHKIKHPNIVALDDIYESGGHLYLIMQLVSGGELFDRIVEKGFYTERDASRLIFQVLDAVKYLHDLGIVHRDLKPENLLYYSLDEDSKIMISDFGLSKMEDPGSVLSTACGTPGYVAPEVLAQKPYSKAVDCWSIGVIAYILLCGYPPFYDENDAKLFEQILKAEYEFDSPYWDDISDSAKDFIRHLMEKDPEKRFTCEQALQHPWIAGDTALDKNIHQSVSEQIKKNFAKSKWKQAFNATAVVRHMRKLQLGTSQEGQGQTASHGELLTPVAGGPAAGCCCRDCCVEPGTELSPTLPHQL

EPHB3 = target: T15, EPHB3 (Homo sapiens, UniProt P54753)
T15 construct: purchased Eurofins DiscoverX (KINOMEscan service)

RIPK2 = target: T16, RIPK2 (Homo sapiens, UniProt O43353)
T16 construct: purchased Eurofins DiscoverX Corporation (KINOMEscan screening service)

DYRK1A = DYRK1A (Homo sapiens, UniProt Q13627)
NEK1 = NEK1 (Homo sapiens, UniProt Q96PY6)

T1 sequence (P00519 whole entry F317L): as the sequence (P00519 whole entry E255K) above, with K255E, F317L counted along it

## C=CC(=O)Nc1ccc(OC)c(Nc2cc(-c3[nH]c(CC)nc3-c3cccc(NC(=O)c4cccc5c4NC(=O)c4ccccc4N5)c3)ccn2)c1 [Compound 4, N-(3-(5-(2-((5-Acrylamido-2-methoxyphenyl)amino)pyridin-4-yl)-2-ethyl-1H-imidazol-4-yl)phenyl)-11-oxo-10,11-dihydro-5H-dibenzo[b,e][1,4]diazepine-9-carboxamide]
NEK10
  remaining binding at 1 µM: 86%
[1]
  remaining binding at 1 µM: 85%
CAMK1G
  remaining binding at 1 µM: 100%
MKNK1
  remaining binding at 1 µM: 100%
MEK5
  remaining binding at 1 µM: 41%
PKN1
  remaining binding at 1 µM: 88%
CAMK1D
  remaining binding at 1 µM: 100%
EPHA3
  remaining binding at 1 µM: 81%
CDC2L1
  remaining binding at 1 µM: 100%
TYRO3
  remaining binding at 1 µM: 32%
PIK3C2G
  remaining binding at 1 µM: 50%
STK33
  remaining binding at 1 µM: 100%
DMPK2
  remaining binding at 1 µM: 0%
TBK1
  remaining binding at 1 µM: 95%
SLK
  remaining binding at 1 µM: 100%
PRKCH
  remaining binding at 1 µM: 69%
GSK3A
  remaining binding at 1 µM: 65%
CAMK2B
  remaining binding at 1 µM: 72%
S6K1
  remaining binding at 1 µM: 100%
[2]
  remaining binding at 1 µM: 100%
[3]
  remaining binding at 1 µM: 8%
CDK4-cyclinD3
  remaining binding at 1 µM: 49%
BUB1
  remaining binding at 1 µM: 100%
PRKCI
  remaining binding at 1 µM: 100%
CDC2L2
  remaining binding at 1 µM: 91%
DDR2
  remaining binding at 1 µM: 100%
ULK3
  remaining binding at 1 µM: 100%
PAK6
  remaining binding at 1 µM: 93%
ACVR1B
  remaining binding at 1 µM: 85%
PLK2
  remaining binding at 1 µM: 100%
BRAF
  remaining binding at 1 µM: 90%
LRRK2
  remaining binding at 1 µM: 93%
[4]
  remaining binding at 1 µM: 65%
NEK5
  remaining binding at 1 µM: 100%
CAMK1
  remaining binding at 1 µM: 81%
EPHB3
  remaining binding at 1 µM: 100%
RIPK2
  remaining binding at 1 µM: 62%
DYRK1A
  remaining binding at 1 µM: 100%
NEK1
  remaining binding at 1 µM: 90%
